Laboratory results reported in paper PMC6751662, “Pharmacological and functional similarities of the human neuropeptide Y system in C. elegans challenges phylogenetic views on the FLP/NPR system” (Cell Communication and Signaling : CCS, 2019).

Assays:
Assay type in all cases: cell-based, C. elegans
NPR-3 = target: T1, NPR-3 (Caenorhabditis elegans, UniProt P90745); test: cAMP reporter gene assay, Gi/o (inhibition of forskolin-induced cAMP), NPR-3; conditions: transiently transfected HEK293 cells, mean of at least three independent experiments; for cAMP, x-fold of forskolin (mean), NPR-3: 1 µM forskolin set to 1.00; for Gi (Gs) [x-fold of forskolin], NPR-3, mean: inhibition of cAMP production induced by 1 µM forskolin (set to 1.00)
T1 construct: expressed in transfected cells; host or cells: HEK293
T1 sequence (P90745 1-376): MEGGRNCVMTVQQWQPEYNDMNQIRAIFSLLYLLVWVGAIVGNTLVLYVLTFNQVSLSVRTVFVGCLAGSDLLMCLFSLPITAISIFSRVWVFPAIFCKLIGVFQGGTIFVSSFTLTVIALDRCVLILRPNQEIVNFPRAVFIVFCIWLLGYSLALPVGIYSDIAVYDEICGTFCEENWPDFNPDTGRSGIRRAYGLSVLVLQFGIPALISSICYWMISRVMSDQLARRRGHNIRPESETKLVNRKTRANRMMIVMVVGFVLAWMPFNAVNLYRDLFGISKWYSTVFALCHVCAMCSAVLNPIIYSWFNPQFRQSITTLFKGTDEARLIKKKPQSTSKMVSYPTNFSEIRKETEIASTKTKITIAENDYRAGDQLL
Description: (§1) Activation of Gs and Gi/o was assessed with a cAMP reporter gene assay. HEK293 cells grown to 70–80% confluency in 6-well plates were transiently co-transfected with vectors encoding the receptor and the cAMP reporter gene plasmid pGL4.29 [luc2P/CRE/Hygro] (Promega; 4 μg total, 1:1 ratio) using Metafectene Pro (3 μl/μg DNA; Biontex) following the manufacturer’s instructions. 16 h post transfection, the cells were seeded into white 384-well plates at a density of 20,000 cells/well. On the next day, the medium was removed and the cells were stimulated with 20 μl of peptide solution (or forskolin as positive control) in serum-free DMEM for 4 h. For measuring Gi/o activity, the peptide solutions additionally contained 1 μM forskolin to elevate cellular cAMP levels. After incubation, the luciferase substrate OneGlo in lysis buffer (Promega) was added and the luminescence was measured in a microplate reader Tecan Spark (Tecan). Data were analyzed with GraphPad Prism 5.03 and are shown as fold of basal or fold of forskolin in case of Gαi/o activity.
(§2) For in vitro activation, data is presented as mean ± SEM of at least three independent experiments conducted in technical triplicate. […] For the C. elegans NPRs, we considered the strongest response elicited by any of the peptides downstream of a particular receptor as the receptor’s maximal signal. This may or may not be the biological maximum that can be reached by the ‘true’ endogenous agonist. For the human receptors, the response to the established endogenous agonist reflected the maximal signal.

NPR-4b = target: T2, NPR-4b (Caenorhabditis elegans, UniProt A0A078BTK0); test: cAMP reporter gene assay, Gi/o (inhibition of forskolin-induced cAMP), NPR-4b; conditions: transiently transfected HEK293 cells, mean of at least three independent experiments; for cAMP, x-fold of forskolin (mean), NPR-4b: 1 µM forskolin set to 1.00; for Gi (Gs) [x-fold of forskolin], NPR-4b, mean: inhibition of cAMP production induced by 1 µM forskolin (set to 1.00)
T2 sequence (A0A078BTK0 1-376): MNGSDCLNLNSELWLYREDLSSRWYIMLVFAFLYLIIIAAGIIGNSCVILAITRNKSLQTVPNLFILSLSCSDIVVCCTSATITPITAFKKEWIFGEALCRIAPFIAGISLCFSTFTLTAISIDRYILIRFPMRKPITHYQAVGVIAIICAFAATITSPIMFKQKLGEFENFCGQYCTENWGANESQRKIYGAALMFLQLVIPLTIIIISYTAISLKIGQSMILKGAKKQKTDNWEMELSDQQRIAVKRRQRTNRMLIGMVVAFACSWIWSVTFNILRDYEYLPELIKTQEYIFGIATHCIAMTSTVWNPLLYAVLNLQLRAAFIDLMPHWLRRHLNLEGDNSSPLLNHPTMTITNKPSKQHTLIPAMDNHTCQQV
Description: as §1, with “(Tecan).” for “(Tecan). Data were analyzed with GraphPad Prism 5.03 and are shown as fold of basal or fold of forskolin in case of Gαi/o activity.”
as §2

NPR-5b = target: T3, NPR-5b (Caenorhabditis elegans, UniProt Q6F3C9); test: cAMP reporter gene assay, Gi/o (with forskolin), NPR-5b; conditions: transiently transfected HEK293 cells, mean of at least three independent experiments; for cAMP, x-fold of forskolin (mean), NPR-5b: 1 µM forskolin set to 1.00, values > 1 = cAMP stimulation; for Gi (Gs) [x-fold of forskolin], NPR-5b, mean: with 1 µM forskolin (set to 1.00), increase of cellular cAMP consistent with Gs coupling
T3 sequence (Q6F3C9 1-433): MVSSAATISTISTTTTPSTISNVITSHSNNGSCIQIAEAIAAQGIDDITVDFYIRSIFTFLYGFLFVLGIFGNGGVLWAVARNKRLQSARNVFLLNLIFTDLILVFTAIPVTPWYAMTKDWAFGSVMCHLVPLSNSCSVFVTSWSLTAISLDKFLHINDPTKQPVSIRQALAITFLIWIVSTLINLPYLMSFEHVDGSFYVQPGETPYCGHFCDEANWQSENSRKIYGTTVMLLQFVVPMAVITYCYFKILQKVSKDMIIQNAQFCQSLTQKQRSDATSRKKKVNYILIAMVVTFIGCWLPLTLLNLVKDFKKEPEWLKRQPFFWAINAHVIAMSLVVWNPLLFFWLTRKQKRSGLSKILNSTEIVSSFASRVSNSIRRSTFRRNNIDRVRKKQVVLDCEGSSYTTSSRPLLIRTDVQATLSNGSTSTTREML
Description: as §1, with “(Tecan).” for “(Tecan). Data were analyzed with GraphPad Prism 5.03 and are shown as fold of basal or fold of forskolin in case of Gαi/o activity.”
as §2

NPR-11 = target: T4, NPR-11 (Caenorhabditis elegans, UniProt Q18179); test: cAMP reporter gene assay, Gi/o (inhibition of forskolin-induced cAMP), NPR-11; conditions: transiently transfected HEK293 cells, mean of at least three independent experiments; for cAMP, x-fold of forskolin (mean), NPR-11: 1 µM forskolin set to 1.00; for Gi (Gs) [x-fold of forskolin], NPR-11, mean: inhibition of cAMP production induced by 1 µM forskolin (set to 1.00)
T4 construct: expressed in transfected cells; host or cells: HEK293, transient
T4 sequence (Q18179 1-402): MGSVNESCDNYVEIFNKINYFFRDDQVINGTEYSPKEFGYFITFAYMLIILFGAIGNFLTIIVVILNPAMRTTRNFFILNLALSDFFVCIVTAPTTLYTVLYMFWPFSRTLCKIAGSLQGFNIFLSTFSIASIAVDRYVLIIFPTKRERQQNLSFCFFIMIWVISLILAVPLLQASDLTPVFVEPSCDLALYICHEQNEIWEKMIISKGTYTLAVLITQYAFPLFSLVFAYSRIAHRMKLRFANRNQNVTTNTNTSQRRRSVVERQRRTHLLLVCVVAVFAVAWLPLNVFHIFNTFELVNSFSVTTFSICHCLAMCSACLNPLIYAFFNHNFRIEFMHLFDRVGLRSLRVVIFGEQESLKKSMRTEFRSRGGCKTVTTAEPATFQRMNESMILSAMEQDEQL
Description: as §1, §2

| cAMP, x-fold of forskolin (mean), NPR-3 (NPR-3; 0.1 µM peptide) | cAMP, x-fold of forskolin (mean), NPR-3 (NPR-3; 10 µM peptide) | cAMP, x-fold of forskolin (mean), NPR-4b (NPR-4b; 0.1 µM peptide) | cAMP, x-fold of forskolin (mean), NPR-4b (NPR-4b; 10 µM peptide) | cAMP, x-fold of forskolin (mean), NPR-5b (NPR-5b; 0.1 µM peptide) | cAMP, x-fold of forskolin (mean), NPR-5b (NPR-5b; 10 µM peptide) | cAMP, x-fold of forskolin (mean), NPR-11 (NPR-11; 0.1 µM peptide) | cAMP, x-fold of forskolin (mean), NPR-11 (NPR-11; 10 µM peptide) | Gi (Gs) [x-fold of forskolin], NPR-3, mean (NPR-3; 0.1 µM peptide) | Gi (Gs) [x-fold of forskolin], NPR-3, mean (NPR-3; 10 µM peptide) | Gi (Gs) [x-fold of forskolin], NPR-4b, mean (NPR-4b; 0.1 µM peptide) | Gi (Gs) [x-fold of forskolin], NPR-4b, mean (NPR-4b; 10 µM peptide) | Gi (Gs) [x-fold of forskolin], NPR-5b, mean (NPR-5b; 0.1 µM peptide) | Gi (Gs) [x-fold of forskolin], NPR-5b, mean (NPR-5b; 10 µM peptide) | Gi (Gs) [x-fold of forskolin], NPR-11, mean (NPR-11; 0.1 µM peptide) | Gi (Gs) [x-fold of forskolin], NPR-11, mean (NPR-11; 10 µM peptide) | Substance |
| --- | --- | --- | --- | --- | --- | --- | --- | --- | --- | --- | --- | --- | --- | --- | --- | --- |
| 0.84 x-fold of forskolin | 1.15 x-fold of forskolin | 1.07 x-fold of forskolin | 0.57 x-fold of forskolin | 0.88 x-fold of forskolin | 1.61 x-fold of forskolin | 0.71 x-fold of forskolin | 0.20 x-fold of forskolin | – | – | – | – | – | – | – | – | EASAFGDIIGELKGKGLGGRMRF-NH2 [FLP-27, NPY-like C. elegans FLP with C-terminal RxRF/Ya signature] |
| 0.90 x-fold of forskolin | 0.97 x-fold of forskolin | 0.89 x-fold of forskolin | 0.34 x-fold of forskolin | 0.84 x-fold of forskolin | 2.19 x-fold of forskolin | 0.14 x-fold of forskolin | 0.06 x-fold of forskolin | – | – | – | – | – | – | – | – | TSGPLGNLAEELNGYSRKKGGFSFRF-NH2 [QRFP26, human pyroglutamylated RFamide peptide, 26 residues, reference compound] |

The remaining lines, values behind:

| Substance | cAMP, x-fold of forskolin (mean), NPR-3 (NPR-3; 0.1 µM peptide) | cAMP, x-fold of forskolin (mean), NPR-3 (NPR-3; 10 µM peptide) | cAMP, x-fold of forskolin (mean), NPR-4b (NPR-4b; 0.1 µM peptide) | cAMP, x-fold of forskolin (mean), NPR-4b (NPR-4b; 10 µM peptide) | cAMP, x-fold of forskolin (mean), NPR-5b (NPR-5b; 0.1 µM peptide) | cAMP, x-fold of forskolin (mean), NPR-5b (NPR-5b; 10 µM peptide) | cAMP, x-fold of forskolin (mean), NPR-11 (NPR-11; 0.1 µM peptide) | cAMP, x-fold of forskolin (mean), NPR-11 (NPR-11; 10 µM peptide) | Gi (Gs) [x-fold of forskolin], NPR-3, mean (NPR-3; 0.1 µM peptide) | Gi (Gs) [x-fold of forskolin], NPR-3, mean (NPR-3; 10 µM peptide) | Gi (Gs) [x-fold of forskolin], NPR-4b, mean (NPR-4b; 0.1 µM peptide) | Gi (Gs) [x-fold of forskolin], NPR-4b, mean (NPR-4b; 10 µM peptide) | Gi (Gs) [x-fold of forskolin], NPR-5b, mean (NPR-5b; 0.1 µM peptide) | Gi (Gs) [x-fold of forskolin], NPR-5b, mean (NPR-5b; 10 µM peptide) | Gi (Gs) [x-fold of forskolin], NPR-11, mean (NPR-11; 0.1 µM peptide) | Gi (Gs) [x-fold of forskolin], NPR-11, mean (NPR-11; 10 µM peptide) |
| --- | --- | --- | --- | --- | --- | --- | --- | --- | --- | --- | --- | --- | --- | --- | --- | --- |
| AGSDPNFLRF-NH2 [FLP-1-2, C. elegans FMRFamide-like peptide, C-terminally amidated, synthesized by SPPS] | 0.87 x-fold of forskolin | 1.02 x-fold of forskolin | 0.81 x-fold of forskolin | 0.42 x-fold of forskolin | 1.02 x-fold of forskolin | 1.72 x-fold of forskolin | 0.92 x-fold of forskolin | 0.72 x-fold of forskolin | – | – | – | – | – | – | – | – |
| GLGPRPLAF-NH2 [[R8A]FLP-21, R8A control peptide of FLP-21, penultimate arginine exchanged for an alanine] | – | – | – | – | – | – | – | – | 1.20 x-fold of forskolin | 1.38 x-fold of forskolin | 0.95 x-fold of forskolin | 0.99 x-fold of forskolin | 1.06 x-fold of forskolin | 0.97 x-fold of forskolin | 0.87 x-fold of forskolin | 0.67 x-fold of forskolin |
| APLEPVYPGDNATPEQMAQYAADLRRYINMLTRPRY-NH2 [PP, human pancreatic polypeptide, reference compound] | 1.02 x-fold of forskolin | 1.25 x-fold of forskolin | 1.05 x-fold of forskolin | 1.14 x-fold of forskolin | 0.86 x-fold of forskolin | 0.96 x-fold of forskolin | 0.37 x-fold of forskolin | 0.14 x-fold of forskolin | – | – | – | – | – | – | – | – |
| ASPSFIRF-NH2 [FLP-4-2, C. elegans FMRFamide-like peptide, C-terminally amidated, synthesized by SPPS] | 0.94 x-fold of forskolin | 0.83 x-fold of forskolin | 0.52 x-fold of forskolin | 0.19 x-fold of forskolin | 0.90 x-fold of forskolin | 1.82 x-fold of forskolin | 0.89 x-fold of forskolin | 0.83 x-fold of forskolin | – | – | – | – | – | – | – | – |
